Experimental data from the supplement of paper PMC10307832.

What was measured:
Test in all cases: relative viability (nuclei count vs DMSO), 5 days (fraction); higher = more cells survive
Sulindac + Decitabine = compound: CC1=C(CC(=O)O)c2cc(F)ccc2/C1=C\c1ccc([S+](C)[O-])cc1 [Sulindac] + Nc1ncn([C@H]2C[C@H](O)[C@@H](CO)O2)c(=O)n1 [Decitabine] (partner 2 µM)
Summary of the method: (§1)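 Values are medians from duplicate plates. Each reflects relative viability, defined as the nuclei count of treated wells over that of vehicle wells. Lung cancer cell lines in 1536-well plates were pin-tool dosed one day after seeding with one drug alone or with a fixed anchor-drug dose plus five library-drug doses (not always all listed) in √10 steps, then fixed, stained and imaged at 4× after 5 days.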

[1] = compound: O=c1[nH]cc(F)c(=O)[nH]1 [5-Fluorouracil] + CC(C)C[C@H](NC(=O)[C@H](Cc1ccccc1)NC(=O)c1cnccn1)B(O)O [Bortezomib] (partner 0.002 µM)
Summary of the method: as §1

Staurosporine + OSI-027 = compound: CN[C@@H]1C[C@H]2O[C@@](C)([C@@H]1OC)n1c3ccccc3c3c4c(c5c6ccccc6n2c5c31)C(=O)NC4 [Staurosporine] + COc1cccc2cc(-c3nc([C@H]4CC[C@H](C(=O)O)CC4)n4ncnc(N)c34)[nH]c12 [OSI-027] (partner 0.5 µM)
Summary of the method: as §1

[2] = compound: O=c1[nH]cc(F)c(=O)[nH]1 [5-Fluorouracil] + O=C(c1cc(Cc2n[nH]c(=O)c3ccccc23)ccc1F)N1CCN(C(=O)C2CC2)CC1 [Olaparib] (partner 8 µM)
Summary of the method: as §1

Cell Line: UMC-11
- relative viability (Sulindac + Decitabine; first compound 0.08 µM): 0.595
- relative viability (Sulindac + Decitabine; first compound 0.253 µM): 0.627
- relative viability (Sulindac + Decitabine; first compound 0.8 µM): 0.535
- relative viability (Sulindac + Decitabine; first compound 2.53 µM): 0.584
- relative viability (Sulindac + Decitabine; first compound 8 µM): 0.65
- relative viability ([1]; first compound 0.02 µM): 0.674
- relative viability ([1]; first compound 0.2 µM): 0.542
- relative viability ([1]; first compound 0.6325 µM): 0.368
- relative viability ([1]; first compound 2 µM): 0.35
- relative viability (Staurosporine + OSI-027; first compound 0.005 µM): 0.5
- relative viability (Staurosporine + OSI-027; first compound 0.01581 µM): 0.151
- relative viability (Staurosporine + OSI-027; first compound 0.05 µM): 0.138
- relative viability (Staurosporine + OSI-027; first compound 0.1581 µM): 0.133
- relative viability (Staurosporine + OSI-027; first compound 0.5 µM): 0.116
- relative viability ([2]; first compound 0.02 µM): 0.409
- relative viability ([2]; first compound 0.2 µM): 0.37
- relative viability ([2]; first compound 0.6325 µM): 0.334
